Residue numbers refer to the chain shown, from its start. Read-outs that look alike come from different tables or passages of the source.
What was measured:
[1] = target: T1, purified wild type MGL (wt-MGLL 6H-11-313) (Homo sapiens, UniProt Q99685)
T1 sequence (Q99685 1-303): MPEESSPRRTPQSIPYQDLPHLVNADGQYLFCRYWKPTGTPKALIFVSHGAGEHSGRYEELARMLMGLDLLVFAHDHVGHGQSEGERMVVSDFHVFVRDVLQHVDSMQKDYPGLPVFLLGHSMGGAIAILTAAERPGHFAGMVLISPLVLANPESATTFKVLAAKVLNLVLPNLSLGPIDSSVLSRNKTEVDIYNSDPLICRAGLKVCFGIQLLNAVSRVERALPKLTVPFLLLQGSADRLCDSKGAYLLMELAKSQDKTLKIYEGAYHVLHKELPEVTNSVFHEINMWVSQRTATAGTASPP

MGL = target: T2, MGL (Rattus norvegicus, UniProt Q8R431); assay: 2-AG accumulation assay in rat brain homogenate; assay type: biochemical; settings: rat brain homogenate, 2-AG accumulation as percent of vehicle; for 2-AG accumulation, % of vehicle control at 1 µM: compound 1 μM, read-out: Rat Brain 2AG % VehCntrl (%) @ 1 μM; for 2-AG accumulation, % of vehicle control at 10 µM: compound 10 μM, read-out: Rat Brain 2AG % VehCntrl (%) @ 10 μM
T2 construct: one g rat brain was homogenized using a Polytron homogenizer; from tissue; host or cells: rat brain homogenate
T2 sequence (Q8R431 1-303): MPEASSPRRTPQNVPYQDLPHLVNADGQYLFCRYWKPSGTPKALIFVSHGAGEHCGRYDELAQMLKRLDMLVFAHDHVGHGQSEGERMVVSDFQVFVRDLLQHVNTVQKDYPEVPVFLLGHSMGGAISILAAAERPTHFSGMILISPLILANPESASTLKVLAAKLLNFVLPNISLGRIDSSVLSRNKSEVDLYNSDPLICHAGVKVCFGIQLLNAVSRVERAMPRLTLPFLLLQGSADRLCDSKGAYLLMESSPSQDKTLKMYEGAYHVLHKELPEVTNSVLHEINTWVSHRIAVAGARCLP

mutant MGL = target: T3, mutant MGL (Homo sapiens, UniProt Q99685, L169S/L176S); assay: MGL ThermoFluor assay - mutant; assay type: binding
T3 sequence (Q99685 1-303 L169S/L176S): T1 sequence (Q99685 1-303) with L169S, L176S

[2] = ThermoFluor concentration-response, read-out: MGL mutant ThermoFluor Kd
[3] = compound concentration measured by qNMR, read-out: MGL mutant ThermoFluor qKd (using qNMR conc.)
[4] = ThermoFluor, compound concentration measured by qNMR, read-out: MGL mutant ThermoFluor qKd (μM) (using qNMR conc.)
[5] = ThermoFluor thermal stability binding assay, read-out: MGL mutant ThermoFluor Kd
[6] = ThermoFluor, compound concentration measured by qNMR, read-out: MGL mutant ThermoFluor qKd (using qNMR conc.)

SMILES	IC50 [1]	2-AG accumulation, % of vehicle control at 1 µM (MGL)	Kd (mutant MGL; [2])	Kd (mutant MGL; [3])	Kd (mutant MGL; [4])	Kd (mutant MGL; [5])	Kd (mutant MGL; [6])	2-AG accumulation, % of vehicle control at 10 µM (MGL)
O=C(c1ccc(-c2cccc(C(F)(F)F)c2)cc1)N1CCN(C2CN(C(=O)c3cscn3)C2)CC1 [Cpd 1067, 1-[1-(1,3-Thiazol-4-ylcarbonyl)azetidin-3-yl]-4-{[3′-(trifluoromethyl)biphenyl-4-yl]carbonyl}piperazine]	7 nM	408%	0.007 µM	–	–	–	–	–
O=C(c1ccc2c(c1)CCCN2)N1CC(N2CCN(C(=O)c3nccs3)CC2)C1 [Cpd 357, 6-(3-[4-(1,3-Thiazol-2-ylcarbonyl)piperazin-1-yl]-azetidin-1-yl)carbonyl-1,2,3,4-tetrahydroquinoline]	3750 nM	152%	–	–	–	0.238 µM	–	–
Cc1cc(C(=O)N2CC(N3CCN(C(=O)c4nccs4)CC3)C2)sc1-c1cccc(F)c1 [Cpd 1065]	7 nM	531%	–	–	0.036 µM	–	–	–
Cc1cc(C(=O)N2CCN(C3CN(C(=O)c4ccc(-c5ccccc5)cc4)C3)CC2)no1 [Cpd 1465]	> 16700 nM	110%	–	–	–	> 31.2 µM	–	–
Cc1sc(C(=O)N2CC(N3CCN(C(=O)c4nccs4)CC3)C2)cc1-c1cccc(F)c1 [Cpd 1059]	6 nM	507%	–	–	0.066 µM	–	–	–
O=C(c1ccc2c(ccn2-c2ccc(Cl)cn2)c1)N1CC(N2CCN(C(=O)c3nccs3)CC2)C1 [Cpd 1313, 1-(5-Chloropyridin-2-yl)-5-({3-[4-(1,3-thiazol-2-ylcarbonyl)piperazin-1-yl]azetidin-1-yl}carbonyl)-1H-indole]	< 5 nM	851%	0.003 µM	–	–	–	0.001 µM	–
CC1CN(C2CN(C(=O)c3ccc(Cc4ccccc4)cc3)C2)CCN1C(=O)c1nccs1 (centres unmarked) [Cpd 115]	11.7 nM	–	0.037 µM	–	–	–	–	579%
O=C(c1ccc2c(c1)CCN2c1ccc(F)cc1)N1CC(N2CCN(C(=O)c3cscn3)CC2)C1 [Cpd 1081]	9 nM	622%	–	0.019 µM	–	–	–	–
O=C(c1cc(-c2cccc(F)c2)cs1)N1CC(N2CCN(C(=O)c3nccs3)CC2)C1 [Cpd 1160]	45 nM	260%	–	–	0.139 µM	–	–	–
O=C(c1ccc2c(c1)C1C=CCC1C(c1cccc(Cl)c1)N2)N1CC(N2CCN(C(=O)c3nccs3)CC2)C1 (centres unmarked) [Cpd 667]	14 nM	856%	0.013 µM	–	–	–	–	–
O=C(c1ccc(Sc2cccc(Cl)c2)cc1)N1CC(N2CCN(C(=O)C(F)(F)F)CC2)C1 [Cpd 677]	21 nM	141%	–	0.432 µM	–	–	–	–
Cc1cn(-c2ccccc2)c2ccc(C(=O)N3CC(N4CCN(C(=O)c5ccccc5)CC4)C3)cc12 [Cpd 577]	52 nM	207%	–	–	0.026 µM	–	–	–
C/C(=C\c1ccc(Cl)cc1)c1c(C)c(C(=O)N2CC(N3CCN(C(=O)C(F)(F)F)CC3)C2)nn1-c1ccc(Cl)cc1Cl [Cpd 1012]	13 nM	173%	–	3.34 µM	–	–	–	–
N#Cc1ccccc1-n1ccc2cc(C(=O)N3CC(N4CCN(C(=O)c5nccs5)CC4)C3)ccc21 [Cpd 1109]	15 nM	680%	–	–	–	0.022 µM	–	–
O=C(c1ccc2c(-c3ccccc3)cccc2c1)N1CC(N2CCN(C(=O)c3nccs3)CC2)C1 [Cpd 338, 1-{1-[(5-Phenylnaphthalen-2-yl)carbonyl]azetidin-3-3yl}-4-(1,3-thiazol-2-ylcarbonyl)piperazine]	< 5 nM	–	–	–	–	0.0011 µM	–	791%
O=C(c1ccc(-c2ccccc2)cc1)N1CCN(C2CN(C(=O)c3nccs3)C2)CC1 [Cpd 1236, 1-(Biphenyl-4-ylcarbonyl)-4-[1-(1,3-thiazol-2-ylcarbonyl)azetidin-3-yl]piperazine]	390 nM	167%	0.031 µM	–	–	–	–	–

Second part, the compound after the results:

IC50 [1]	2-AG accumulation, % of vehicle control at 1 µM (MGL)	Kd (mutant MGL; [2])	Kd (mutant MGL; [3])	Kd (mutant MGL; [4])	Kd (mutant MGL; [5])	Kd (mutant MGL; [6])	2-AG accumulation, % of vehicle control at 10 µM (MGL)	SMILES
190 nM	212%	1 µM	–	–	–	–	–	O=C(c1nccs1)N1CCN(C2CN(C(=O)c3cc(-c4ccccc4)ccc3F)C2)CC1 [Cpd 1208]
6 nM	287%	0.166 µM	0.132 µM	–	–	–	–	O=C(c1ccc[nH]1)N1CCN(C2CN(C(=O)c3nn(-c4ccc(Cl)cc4Cl)c4c3CCC/C4=C\c3ccc(Cl)cc3)C2)CC1 [Cpd 1019]
170 nM	109%	0.123 µM	–	–	–	–	–	O=C(c1ccccc1)N1CCN(C2CN(C(=O)c3ccc(Oc4cccc(C(F)(F)F)c4)cc3)C2)CC1 [Cpd 419, 1-(Phenylcarbonyl)-4-[1-({4-[3-(trifluoromethyl)phenoxy]phenyl}carbonyl)azetidin-3-yl]piperazine]
< 5 nM	816%	–	–	0.001 µM	–	–	–	O=C(c1nccs1)N1CCN(C2CN(C(=O)c3sc4cc(F)c(C(F)(F)F)cc4c3Cl)C2)CC1 [Cpd 901, 1-(1-{[3-Chloro-6-fluoro-5-(trifluoromethyl)-1-benzothiophen-2-yl]carbonyl}azetidin-3-yl)-4-(1,3-thiazol-2-ylcarbonyl)piperazine]
< 5 nM	589%	0.002 µM	–	–	–	0.005 µM	–	O=C(c1ccc(-n2nc3c(c2-c2cccc(C(F)(F)F)c2)CCC3)cc1)N1CC(N2CCN(C(=O)c3nccs3)CC2)C1 [Cpd 1330]
15 nM	679%	–	–	–	0.025 µM	–	–	O=C(c1ccc2c(c1)CCN(c1ncccn1)C2)N1CC(N2CCN(C(=O)c3nccs3)CC2)C1 [Cpd 668]
< 5 nM	838%	–	–	–	0.077 µM	–	–	O=C(c1cc2cc(-c3cccc(C(F)(F)F)c3)ccc2o1)N1CC(N2CCN(C(=O)c3nccs3)CC2)C1 [Cpd 1343]
23 nM	683%	–	–	–	0.08 µM	–	–	O=C(c1ccccc1)N1CCN(C2CN(C(=O)c3ccc(OCc4ccc(Cl)s4)cc3)C2)CC1 [Cpd 972]
10 nM	545%	0.009 µM	–	–	–	0.006 µM	–	Cc1cn(-c2ccc(F)cc2)c2ccc(C(=O)N3CCN(C4CN(C(=O)c5nccs5)C4)CC3)cc12 [Cpd 1089, 1-(4-Fluorophenyl)-3-methyl-5-({4-[1-(1,3-thiazol-2-ylcarbonyl)azetidin-3-yl]piperazin-1-yl}carbonyl)-1H-indole]
< 5 nM	397%	0.118 µM	–	–	–	0.136 µM	–	CCCCCCCC/C=C\CCCCCCCC(=O)N1CC(N2CCN(C(=O)c3nccs3)CC2)C1 [Cpd 641]
< 5 nM	545%	–	–	0.018 µM	–	–	–	Cc1cc(C(=O)N2CC(N3CCN(C(=O)c4nccs4)CC3)C2)sc1-c1ccc(F)cc1 [Cpd 1353]
10 nM	764%	–	–	–	0.047 µM	–	–	O=C(c1ccc2c(c1)CCN(c1ccccn1)C2)N1CC(N2CCN(C(=O)c3nccs3)CC2)C1 [Cpd 661]
26 nM	271%	0.018 µM	–	–	–	–	–	O=C(c1ccc(-c2ccc(C(F)(F)F)s2)cc1)N1CC(N2CCN(C(=O)c3ccc[nH]3)CC2)C1 [Cpd 1138]
< 5 nM	602%	0.002 µM	–	–	–	–	–	O=C(c1ccc2c(-c3ccccc3)c[nH]c2c1)N1CC(N2CCN(C(=O)c3nccs3)CC2)C1 [Cpd 1316]
15.2 nM	481%	0.0558 µM	–	–	–	–	–	N#Cc1ccc(-c2ccc(C(=O)N3CC(N4CCN(C(=O)c5nccs5)CC4)C3)cc2)cc1 [Cpd 167, 4′-({3-[4-(1,3-Thiazol-2-ylcarbonyl)piperazin-1-yl]azetidin-1-yl}carbonyl)biphenyl-4-carbonitrile]
